# Measurements taken from ChEMBL document CHEMBL6134901 (J Med Chem, 2025).
# Active and inactive are the calls of the source. No cut-off for these calls is given here.
# Tests used:
# [1] = system: Clostridioides difficile; test: Inhibition of spore cortex degradation in Clostridium difficile assessed as greenish-blue spheres at 50 uM by Wirtz-Conklin staining based analysis; format: functional, organism-based
# [2] = system: Clostridioides difficile; test: Antibacterial activity against Clostridium difficile ATTC43255 assessed as spore germination inhibition at 45 uM incubated for 60 mins by spectrometry relative to control; format: functional; settings: ATTC43255, 1 h
# [3] = system: Clostridioides difficile; test: Antibacterial activity against Clostridium difficile ATTC43255 assessed as spore germination inhibition incubated for 60 mins by spectrometry; format: functional, organism-based
# [4] = Cytotoxicity against human HepG2 cells incubated for 24 hrs by XTT assay; format: toxicity, cell-based; settings: read-out: LD50
# [5] = system: Clostridioides difficile; test: Antibacterial activity against metronidazole-resistant Clostridium difficile […] clinical isolate; format: functional
# [6] = system: Bacteroides fragilis; test: Antibacterial activity against Bacteroides fragilis HM-709; format: functional
# [7] = system: Eubacterium sp.; test: Antibacterial activity against Eubacterium sp. HM-178; format: functional
# [8] = system: Veillonella; test: Antibacterial activity against Veillonella sp. HM-49; format: functional
# [9] = system: Limosilactobacillus reuteri; test: Antibacterial activity against vancomycin-susceptible Lactobacillus reuteri HM-102 clinical isolate; format: functional
# [10] = system: Klebsiella pneumoniae; test: Antibacterial activity against Klebsiella pneumoniae ATCC 700603; format: functional
# [11] = system: Acinetobacter baumannii; test: Antibacterial activity against Acinetobacter baumannii ATCC 17961; format: functional
# [12] = system: Pseudomonas aeruginosa; test: Antibacterial activity against Pseudomonas aeruginosa ATCC 27853; format: functional
# [13] = system: Klebsiella aerogenes; test: Antibacterial activity against Enterobacter aerogenes ATCC 35029; format: functional
# [14] = system: Escherichia coli; test: Antibacterial activity against Escherichia coli ATCC 25922; format: functional
# [15] = system: Staphylococcus haemolyticus; test: Antibacterial activity against Staphylococcus haemolyticus ATCC 29970; format: functional
# [16] = system: Enterococcus faecalis; test: Antibacterial activity against Enterococcus faecalis ATCC 29212; format: functional
# [17] = system: Staphylococcus aureus; test: Inhibition of Staphylococcus aureus COL PBP1 at 5 ug/ml measured for 24 hrs by absorbance based assay; settings: dose 5.0 µg/ml
# [18] = system: Staphylococcus aureus; test: Inhibition of Staphylococcus aureus COL PBP2 at 5 ug/ml measured for 24 hrs by absorbance based assay; settings: dose 5.0 µg/ml
# [19] = system: Bacteria; test: Binding affinity to bacterial prepro-SleC assessed as dissociation constant by MST assay
# [20] = Binding affinity to bacterial pro-SleC assessed as dissociation constant by MST assay; parameters: species or system Bacteria
# [21] = system: Bacteria; test: Binding affinity to bacterial GerS assessed as dissociation constant by MST assay
# [22] = Binding affinity to bacterial cwID assessed as dissociation constant by MST assay; parameters: species or system Bacteria
# [23] = system: Bacteria; test: Binding affinity to bacterial CspA assessed as dissociation constant by MST assay
# [24] = Binding affinity to bacterial CspB assessed as dissociation constant by MST assay; parameters: species or system Bacteria
# [25] = system: Bacteria; test: Binding affinity to bacterial CspC assessed as dissociation constant by MST assay
# [26] = system: Bacillus subtilis; test: Inhibition of Bacillus subtilis sacculi-derived SleC
# [27] = Binding affinity to bacterial SleC assessed as dissociation constant by MST assay; parameters: species or system Bacteria
# [28] = system: Clostridioides difficile; test: Antibacterial activity against Clostridium difficile ATTC43255 assessed as inhibition of vegetative cells; format: functional, organism-based
# [29] = system: Clostridioides difficile; test: Antibacterial activity against Clostridium difficile ATTC43255 assessed as inhibition of vegetative cells in presence of vancomycin; format: functional, organism-based
# [30] = system: Clostridioides difficile; test: Antibacterial activity against Clostridium difficile BAA1870 assessed as spore germination inhibition; format: functional, organism-based
# [31] = system: Clostridioides difficile; test: Post-antibiotic effect in Clostridium difficile ATTC43255 assessed as spore germination inhibition at 60 uM incubated for 1 hr followed by fresh medium replacement without compound measured up to 8 hrs; format: functional, organism-based
# [32] = Drug uptake in blood of ICR mouse assessed as drug absorption from intestines at 30 mg/kg, po measured for 1 to 24 hrs by UPLC analysis; format: ADME, organism-based; settings: in vivo, time 1-24 hrs
# [33] = Cmax in ICR mouse at 30 mg/kg, po measured for 1 to 24 hrs by UPLC analysis; format: ADME, organism-based; settings: in vivo, time 1-24 hrs
# [34] = Terminal half life in ICR mouse at 30 mg/kg, po measured for 1 to 24 hrs by UPLC analysis; format: ADME, organism-based; settings: in vivo, time 1-24 hrs, read-out: beta t1/2 (converted)
# [35] = AUC (0 to 24 hrs) in ICR mouse at 30 mg/kg, po measured for 1 to 24 hrs by UPLC analysis; format: ADME, organism-based; settings: in vivo, time 1-24 hrs
# [36] = Drug concentration in feces of ICR mouse at 30 mg/kg, po measured after 8 hrs by UPLC analysis; format: ADME, organism-based; settings: faeces, read-out: Ct
# [37] = Drug concentration in feces of ICR mouse at 30 mg/kg, po measured after 24 hrs by UPLC analysis; format: ADME, organism-based; settings: in vivo
# [38] = Cmax in feces of Golden Syrian hamster at 5 mg/kg, po bid measured for 5 days; format: ADME, organism-based, Mesocricetus auratus; settings: faeces, time 5 day
# [39] = Drug concentration in liver of Golden Syrian hamster at 5 mg/kg, po bid measured after 8 hrs; format: ADME, organism-based, Mesocricetus auratus; settings: read-out: Ct
# [40] = Drug concentration in brain of Golden Syrian hamster at 5 mg/kg, po bid measured after 8 hrs; format: ADME, organism-based, Mesocricetus auratus; settings: read-out: Ct
# [41] = Drug concentration in kidney of Golden Syrian hamster at 5 mg/kg, po bid measured after 8 hrs; format: ADME, organism-based, Mesocricetus auratus; settings: read-out: Ct
smiles,measurement,setting,value
Cl.NCc1ccc(-c2nc(-c3ccnc(Oc4ccc(C(F)(F)F)cc4)c3)no2)cc1,inhibition,[1],Active
same,inhibition at 45 µM,[2],84%
same,inhibition,[3],Dose-dependent-effect
same,IC50,"[3]; ATTC43255, 1 h",14 µM
same,CC50 at 24 h,[4],51 µg/mL
same,MIC,[5],16 µg/mL
same,MIC,[6],32 µg/mL
same,MIC,[7],16 µg/mL
same,MIC,[8],> 128 µg/mL
same,MIC,[9],32 µg/mL
same,MIC,[10],> 128 µg/mL
same,MIC,[11],> 128 µg/mL
same,MIC,[12],> 128 µg/mL
same,MIC,[13],> 128 µg/mL
same,MIC,[14],> 128 µg/mL
same,MIC,[15],8 µg/mL
same,MIC,[16],4 µg/mL
same,inhibition,[17],Active
same,inhibition,[18],Active
same,Activity,[19],inactive
same,Kd,[20],16 µM
same,Activity,[21],inactive
same,Kd,[22],54 µM
same,Activity,[23],inactive
same,Kd,[24],8 µM
same,Activity,[25],inactive
same,inhibition,[26],Active
same,Kd,[27],12 µM
same,IC50,[28],46.2 µM
same,IC50,[29],22.7 µM
same,IC50,[30],13 µM
same,inhibition,[31],Active
same,Drug uptake,[32],Active
same,Cmax,[33],1440 ng/mL
same,half-life,[34],6.3 h
same,AUC(0-t),[35],17000 ng·h/mL
same,concentration at 8 h,[36],11000 ng/g
same,Ct,[37],Below_limit_of_detection
same,Cmax,[38],~4000 ng/g
same,concentration at 8 h,[39],5600 ng/g
same,concentration at 8 h,[40],15000 ng/g
same,concentration at 8 h,[41],56000 ng/g
